From US20260116910A1, “POLYCYCLIC COMPOUNDS AND METHODS THEREOF” (HEPAITECH (BEIJING) BIOPHARMA TECHNOLOGY CO., LTD., priority 2021, published 2026)
pEC50: −log10 of the molar value. “And” between values parts separate entries of the source, which are not always exact repeats. Equal values may be shown once.

Key:
human FXR (NR1H4) = biological target: T1, human FXR (NR1H4) (Homo sapiens, UniProt Q96RI1); assay: Human FXR (NR1H4) agonist assessment, FXRE-NanoLuc reporter in HEK293T cells; assay type: cell-based; conditions: FXR activation, HEK293T FXRE-NanoLuc reporter, 24 hr; for pEC50: read-out: EC50
T1 sequence (Q96RI1 1-476 isoform Q96RI1-1): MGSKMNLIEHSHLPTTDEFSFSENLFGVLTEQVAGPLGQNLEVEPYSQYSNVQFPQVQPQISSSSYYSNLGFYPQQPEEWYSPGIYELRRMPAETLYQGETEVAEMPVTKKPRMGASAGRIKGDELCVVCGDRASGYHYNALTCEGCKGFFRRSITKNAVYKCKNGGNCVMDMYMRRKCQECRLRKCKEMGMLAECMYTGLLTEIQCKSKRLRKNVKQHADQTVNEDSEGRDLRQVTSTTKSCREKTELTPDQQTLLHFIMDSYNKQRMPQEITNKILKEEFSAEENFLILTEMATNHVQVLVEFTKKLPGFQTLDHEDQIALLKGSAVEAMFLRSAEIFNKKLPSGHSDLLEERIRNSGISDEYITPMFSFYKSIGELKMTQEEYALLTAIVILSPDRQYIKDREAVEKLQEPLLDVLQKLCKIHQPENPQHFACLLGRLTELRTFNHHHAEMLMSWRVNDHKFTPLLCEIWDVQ
Protocol: As those skilled in the art appreciate, various technologies are available for assessment of FXR activation in accordance with the present disclosure. […] Human FXR (NR1H4) agonist assessment (see, e.g., Yu et al. eLife 2019; 8: e48431): HEK293T cells stably expressing human FXR and containing FXR response element (FXRE)-NanoLuc reporter were cultured in DMEM medium supplemented with 10% FBS and 1% PS, at 37° C. in a humidified atmosphere with 5% CO2. Cells were detached by centrifuging (1000 rpm, 3 min). The pellet was re-suspended in medium, and cell density was adjusted to about 1×10^6 cells/mL. 100 μL suspension was seeded to each well of a white-walled, clear-bottom 96-well microplates (cell plate). Cells in microplates were cultured overnight.
In the following day, cells were grown to higher than 95% density in each well. Culture medium was replaced, and compounds were added to the wells. 0.01% DMSO (v/v) served as negative control. Plates were incubated at 37° C. in 5% CO2 for 24 hr.
In the following day, a 10 μL aliquot of cell culture medium was removed from each well and combined with 40 μL culture medium plus […] assay buffer (containing 20 mM of the luciferase substrate coelenterazine). After 5 min incubation, luminescence was measured using an EnVision plate reader (PerkinElmer).
In some embodiments, gradient diluted solutions of several concentrations were used to treat cells and corresponding responses were used to fit sigmoid function and to derive EC50 in Origin.

MRGPRX4 = MRGPRX4 (Homo sapiens, UniProt Q96LA9); assay: MRGPRX4 activation, Fluo-8 Ca2+ FLIPR assay in HEK293T cells stably expressing MRGPRX4; assay type: cell-based; set-up: key to MRGPRX4 activation, Average / MRGPRX4 activation, Ave.: fluorescence change dF/F0; conditions: for EC50: MRGPRX4 activation, Ca2+ fluorescence, no activation in tested range reported as III, read-out: Activity (EC50 μM)
Sequence of MRGPRX4 (Q96LA9 whole entry): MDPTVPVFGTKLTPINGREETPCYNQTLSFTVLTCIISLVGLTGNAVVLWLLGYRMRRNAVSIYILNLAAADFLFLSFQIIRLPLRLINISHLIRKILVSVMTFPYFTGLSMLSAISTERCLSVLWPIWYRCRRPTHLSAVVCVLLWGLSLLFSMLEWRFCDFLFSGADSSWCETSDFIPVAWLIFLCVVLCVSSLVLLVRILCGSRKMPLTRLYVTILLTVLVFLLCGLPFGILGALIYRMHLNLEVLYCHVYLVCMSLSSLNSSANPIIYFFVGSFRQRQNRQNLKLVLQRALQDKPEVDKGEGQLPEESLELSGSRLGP
Protocol: In some embodiments, cells were cultured in poly-D-Lys coated blacked walled, clear-bottom 96-well microplates. HEK293T cells stably expressing MRGPRX4 were cultured in DMEM medium supplemented with 10% FBS and 1% PS, at 37° C. in a humidified atmosphere with 5% CO2. Cells were detached by centrifuging (1000 rpm, 3 min). The pellet was re-suspended in medium, and cell density was adjusted to about 1×10^6 cells/mL. 100 μL suspension was seeded to each well of a microplates (cell plate). Cells in the microplates were cultured overnight. In the following day, cells were grown to higher than 95% density in each well.
Ca^2+ fluorescent dye loading: Fluo-8 AM (Screen Quest Fluo-8 AM Calcium Assay Kit, AAT Bioquest, cat. #: 21083) was diluted in HHBS buffer and adjusted to 2 μM (dye buffer). Medium in each well was changed into 50 μL dye buffer carefully. After incubation for 40-60 min under room temperature, the dye buffer was changed into 50 μL HHBS buffer.
The concentration of solution should be determined according to the protocol settings and experimental needs (e.g., Log[M]=−4, −5, −6, −7, −8, and −9). Prepare 2× serial dilution series of compounds (at least 75 μL per well).
A fluorescent signal baseline was measured using FLIPR®Tetra for 30 s. Then 50 μL of the chemical solution would be added to the cell plate. The fluorescent signal would be measured for another 150 s.
Activity of each compound was calculated by the fluorescence change (dF/F0). Curves were fitted to obtain EC50 values. In some embodiments, at least 3 repeats were performed to obtain the average values. For assessment of a compound, gradient diluted solutions of different concentrations were used to treat cells and corresponding responses were used to fit sigmoid function and to derive EC50 in Origin. In some embodiments, assessed concentrations were or included about 10^−4, 10^−4.5, 10^−5, 10^−5.5, 10^−6, 10^−6.5, 10^−7, 10^−8, and/or 10^−9 M; for example, in many instances, assessed concentrations included about 10^−5, 10^−6, 10^−7 and 10^−8 M. In some embodiments, assessed concentrations were about 10^−4, 10^−4.5, 10^−5, 10^−5.5, 10^−6, 10^−7, 10^−8, and 10^−9 M. In some embodiments, assessed concentrations were about 10^−4, 10^−5, 10^−6, 10^−7, 10^−8, and 10^−9 M. In some embodiments, assessed concentrations were about 10^−4, 10^−4.5, 10^−5, 10^−5.5, 10^−6, and 10^−7 M. In some embodiments, assessed concentrations were about 2000000, 1000000, 500000, 250000, 125000, 62500, 31250, 15625, 7813, 3906 nM. […] In some embodiments, assessed concentrations were about 30000, 10000, 3333, 1111, 370, 123, 41, 14, 4.6, 1.5 nM.

SMILES | Efficacy (maximum measured induction of NanoLuc, normalized to CDCA set as 100%) (human FXR (NR1H4)) | pEC50 (human FXR (NR1H4)) | MRGPRX4 activation, fluorescence change (dF/F0), Average (MRGPRX4; Conc. (Log[M]) −5) | EC50 (MRGPRX4) [µM] | MRGPRX4 activation, Average (MRGPRX4; E3-9, Conc. (Log[M]) −4.0) | MRGPRX4 activation, Average (MRGPRX4; E3-9, Conc. (Log[M]) −4.5) | MRGPRX4 activation, Average (MRGPRX4; E3-9, Conc. (Log[M]) −5.0) | MRGPRX4 activation, Average (MRGPRX4; E3-9, Conc. (Log[M]) −5.4) | MRGPRX4 activation, Average (MRGPRX4; E3-9, Conc. (Log[M]) −5.9) | MRGPRX4 activation, Average (MRGPRX4; E3-9, Conc. (Log[M]) −6.4) | MRGPRX4 activation, Average (MRGPRX4; E3-9, Conc. (Log[M]) −6.9) | MRGPRX4 activation, Average (MRGPRX4; E3-9, Conc. (Log[M]) −7.3) | MRGPRX4 activation, Average (MRGPRX4; E3-9, Conc. (Log[M]) −7.8) | MRGPRX4 activation, Average (MRGPRX4; E3-9, Conc. (Log[M]) −8.3) | further results
CC[C@H]1[C@@H](O)[C@@H]2[C@H](CC[C@]3(C)[C@@H]([C@H](C)CCNC(=O)NS(=O)(=O)c4ccc(C(C)(C)C(=O)O)cc4)CC[C@@H]23)[C@@]2(C)CCCC[C@@H]12 [5-10] | C (100%<efficacy <=300%) | > 6.00 | 0.013 | > 100 |  |  |  |  |  |  |  |  |  |  | MRGPRX4 activation, fluorescence change (dF/F0), Average (MRGPRX4; Conc. (Log[M]) −4): 0.090; MRGPRX4 activation, fluorescence change (dF/F0), Average (MRGPRX4; Conc. (Log[M]) −4.5): 0.043; MRGPRX4 activation, fluorescence change (dF/F0), Average (MRGPRX4; Conc. (Log[M]) −5.5): 0.017; MRGPRX4 activation, fluorescence change (dF/F0), Average (MRGPRX4; Conc. (Log[M]) −6): 0.020; MRGPRX4 activation, fluorescence change (dF/F0), Average (MRGPRX4; Conc. (Log[M]) −7): 0.030
CC[C@H]1[C@@H](O)[C@@H]2[C@H](CC[C@]3(C)[C@@H]([C@H](C)CCNC(=O)NS(=O)(=O)c4ccc5c(c4)CCC(C)(C)O5)CC[C@@H]23)[C@@]2(C)CCCC[C@@H]12 [5-29] | A (efficacy >400%) | > 6.00 |  | > 100 | 0.014 | 0.014 | 0.010 | 0.018 | 0.016 | 0.018 | 0.018 | 0.016 | 0.020 | 0.018 | 
CC[C@H]1[C@@H](O)[C@@H]2[C@H](CC[C@]3(C)[C@@H]([C@H](C)CNC(=O)NS(=O)(=O)c4ccc(N5CCCCC5)nc4)CC[C@@H]23)[C@@]2(C)CCCC[C@@H]12 [20-3] | B (300%<efficacy <=400%) | 5.00 to 6.00 |  | > 100 |  |  |  |  |  |  |  |  |  |  | Activation (%) (MRGPRX4; second E3-8-1, 4.6 nM, n = 1): 3.48%; Activation (%) (MRGPRX4; second E3-8-1, 4.6 nM, n = 2): 2.86%; Activation (%) (MRGPRX4; second E3-8-1, 14 nM, n = 1): 3.48%; Activation (%) (MRGPRX4; second E3-8-1, 14 nM, n = 2): 3.79%; Activation (%) (MRGPRX4; second E3-8-1, 41 nM, n = 1): 3.48%; Activation (%) (MRGPRX4; second E3-8-1, 41 nM, n = 2): 3.48%; Activation (%) (MRGPRX4; second E3-8-1, 123 nM, n = 1): 3.17%; Activation (%) (MRGPRX4; second E3-8-1, 123 nM, n = 2): 3.79%; Activation (%) (MRGPRX4; second E3-8-1, 370 nM, n = 1): 3.17%; Activation (%) (MRGPRX4; second E3-8-1, 370 nM, n = 2): 3.17%; Activation (%) (MRGPRX4; second E3-8-1, 1111 nM, n = 1): 3.79%; Activation (%) (MRGPRX4; second E3-8-1, 1111 nM, n = 2): 3.48%; Activation (%) (MRGPRX4; second E3-8-1, 3333 nM, n = 1): 2.55%; Activation (%) (MRGPRX4; second E3-8-1, 3333 nM, n = 2): 3.17%; Activation (%) (MRGPRX4; second E3-8-1, 10000 nM, n = 1): 2.55%; Activation (%) (MRGPRX4; second E3-8-1, 10000 nM, n = 2): 3.17%; Activation (%) (MRGPRX4; second E3-8-1, 30000 nM, n = 1): 1.63%; Activation (%) (MRGPRX4; second E3-8-1, 30000 nM, n = 2): 2.24%
CC[C@H]1[C@@H](O)[C@@H]2[C@H](CC[C@]3(C)[C@@H]([C@H](C)CCNC(=O)NS(=O)(=O)c4cc(F)ccc4F)CC[C@@H]23)[C@@]2(C)CCC(F)(F)C[C@@H]12 [10-2] | C (100%<efficacy <=300%) | > 6.00 |  | > 100 | 0.006 | 0.004 | 0.010 | 0.018 | 0.018 | 0.019 | 0.021 | 0.019 | 0.018 | 0.018 | 
C[C@H](CC(=O)O)[C@H]1CC[C@H]2[C@@H]3CC[C@@H]4C[C@H](O)CC[C@]4(C)[C@H]3C[C@H](O)[C@]12C [RC-1] | B (300%<efficacy <=400%) | 5.00 to 6.00 | −0.029 | < 50 |  |  |  |  |  |  |  |  |  |  | MRGPRX4 activation, fluorescence change (dF/F0), Average (MRGPRX4; Conc. (Log[M]) −4): 0.329; MRGPRX4 activation, fluorescence change (dF/F0), Average (MRGPRX4; Conc. (Log[M]) −4.5): 0.080; MRGPRX4 activation, fluorescence change (dF/F0), Average (MRGPRX4; Conc. (Log[M]) −5.5): −0.019; MRGPRX4 activation, fluorescence change (dF/F0), Average (MRGPRX4; Conc. (Log[M]) −6): −0.015; MRGPRX4 activation, fluorescence change (dF/F0), Average (MRGPRX4; Conc. (Log[M]) −7): −0.010; MRGPRX4 activation, fluorescence change (dF/F0), Average (MRGPRX4; Conc. (Log[M]) −8): −0.003; MRGPRX4 activation, fluorescence change (dF/F0), Average (MRGPRX4; Conc. (Log[M]) −9): −0.005
CC[C@H]1[C@@H](O)[C@@H]2[C@H](CC[C@]3(C)[C@@H]([C@H](C)CCNS(=O)(=O)C4CC4)CC[C@@H]23)[C@@]2(C)CCCC[C@@H]12 [6-5] | C (100%<efficacy <=300%) | 5.00 to 6.00 |  | > 100 | 0.025 | 0.020 | 0.018 | 0.020 | 0.018 | 0.016 | 0.018 | 0.016 | 0.020 | 0.018 | 
CO/N=C1\C[C@@H]2C[C@H](OC(C)=O)CC[C@]2(C)[C@H]2CC[C@]3(C)[C@@H]([C@H](C)CCC(=O)OC)CC[C@H]3[C@H]12 [1-2] | D (efficacy <=100%) | < 5.00 | 0.027 and 0.022 | 50 to 100 |  |  |  |  |  |  |  |  |  |  | 
